According to EP2402012B1, “Liquid formulations of rupatadine fumarate” (J. Uriach y Compania S.A., priority 2010, dated 2012):
Counter-ions that a name gives are not always drawn.

Assays:
[1] = Rate of formation of Compound II in aqueous solutions of rupatadine fumarate on storage (HPLC, Method 2); type: physicochemical; settings: aqueous solution 1 g(rupatadine fumarate)/L
Method: The HPLC method used to determine the % Compound II present in a formulation is based on the European Pharmacopoeia 2.2.29 using the following conditions: • room temperature and atmospheric pressure • column: C1810 µm (3.9 mm x 30 cm) • eluent: Methanol - Phosphate buffer solution pH 4.2 (75:25) • eluent flow: 1.3 mL/min • detection: UV-Visible spectrophotometer at 265 nm • retention time of Rupatadine: aprox. 8.9 min • relative retention time of Compound II: aprox. 0.43 Reference standard solutions of rupatadine and Compound II (which can be prepared as described in Reference Example 3) are used in the identification of the components. The test sample is compared to the equivalent placebo (same formulation without rupatadine fumarate) to check overlapping peaks with other excipients in the formulation. The % Compound II is calculated as 100*(area of Compound II peak)/(area of rupatadine peak). Different aqueous solutions comprising rupatadine fumarate at a concentration of 1 g(rupatadine fumarate)/L at different pH (3.41, 4.38 and 5.00), obtained adding the required amount of solutions of HCl(aq) or NaOH(aq) to solutions containing only water and rupatadine fumarate, were stored at different temperature conditions (room temperature and 40°C/75%HR) during two months and analyzed at the beginning, at one month and at the end of the period using Method 2, see table below.

[2] = Solubility of rupatadine fumarate in water and in buffer solutions at different pH; type: physicochemical; settings: water; 25 g/L added, stirring 16 - 24 h, filtered; room temperature
Method: The solubility of rupatadine fumarate was determined by adding 25 g/L of rupatadine fumarate to water and stirring during 16 - 24 h. The resulting solution was filtered and the amount of rupatadine determined using the Method 2. Using the same procedure, but using buffer solutions of known pH instead of water, the solubility of rupatadine fumarate at different pH was determined (the pH of the solution was measured prior to the addition of rupatadine fumarate).

Cc1cncc(CN2CCC(=C3c4ccc(Cl)cc4CCc4cccnc43)CC2)c1 [rupatadine fumarate]
% Compound II 1 month ([1]; pH 3.41, 25 ± 2°C): 0.174% | % Compound II 1 month ([1]; pH 3.41, 40 ± 2°C): 0.737% | % Compound II 2 months ([1]; pH 3.41, 25 ± 2°C): 0.276% | % Compound II 2 months ([1]; pH 3.41, 40 ± 2°C): 1.396% | % Compound II initial ([1]; pH 3.41): 0.035% | % Compound II 1 month ([1]; pH 4.38, 25 ± 2°C): 0.090% | % Compound II 1 month ([1]; pH 4.38, 40 ± 2°C): 0.357% | % Compound II 2 months ([1]; pH 4.38, 25 ± 2°C): 0.142% | % Compound II 2 months ([1]; pH 4.38, 40 ± 2°C): 0.646% | % Compound II initial ([1]; pH 4.38): 0.036% | % Compound II 1 month ([1]; pH 5.00, 25 ± 2°C): 0.039% | % Compound II 1 month ([1]; pH 5.00, 40 ± 2°C): 0.112% | % Compound II 2 months ([1]; pH 5.00, 25 ± 2°C): 0.051% | % Compound II 2 months ([1]; pH 5.00, 40 ± 2°C): 0.182% | % Compound II initial ([1]; pH 5.00): 0.040% | solubility [2]: 2900 µg/mL
